From ChEMBL document CHEMBL3885881, “DrugMatrix”

Organism: Rattus norvegicus
Assay: DrugMatrix - Regimen: Daily Repeat
Type: toxicity, organism-based, Sprague-Dawley
Design: regimen Daily Repeat, gender Male, age 6-8 weeks
Settings: in vivo, po, route oral GAVAGE, vehicle .5 % CMC; for ABSOLUTE BASOPHIL / ABSOLUTE EOSINOPHIL / ABSOLUTE LYMPHOCYTE / ABSOLUTE MONOCYTE / ABSOLUTE SEGMENTED NEUTROPHIL / BASOPHIL / EOSINOPHIL / ERYTHROCYTE COUNT / HEMATOCRIT / HEMOGLOBIN / LEUKOCYTE COUNT / LYMPHOCYTE / MEAN CORPUSCULAR HEMOGLOBIN / MEAN CORPUSCULAR HEMOGLOBIN CONCENTRATION / MEAN CORPUSCULAR VOLUME / MONOCYTE / NEUTROPHIL / NUCLEATED RED BLOOD CELLS / PLATELET COUNT: tissue Blood; for ALANINE AMINOTRANSFERASE / ALBUMIN / ALKALINE PHOSPHATASE / ASPARTATE AMINOTRANSFERASE / BLOOD UREA NITROGEN / CARBON DIOXIDE / CHLORIDE / CHOLESTEROL / CREATINE PHOSPHOKINASE / CREATININE / GLUCOSE / LACTATE DEHYDROGENASE / LIPASE / PHOSPHORUS / POTASSIUM / SODIUM / TOTAL BILIRUBIN / TOTAL PROTEIN / URIC ACID: tissue Plasma
[1] = 1 mg/kg, 72 h, dose level Low, time 3 day
[2] = 1 mg/kg, 120 h, dose level Low, time 5 day
[3] = 68 mg/kg, 72 h, dose level High, time 3 day
[4] = 68 mg/kg, 120 h, dose level High, time 5 day

## C[C@]12C=CC(=O)C=C1CC[C@@H]1[C@@H]2C(=O)C[C@@]2(C)[C@H]1CC[C@]2(O)C(=O)CO [PREDNISONE]
[1]
  ABSOLUTE BASOPHIL: 0 CELLS/uL
  ABSOLUTE EOSINOPHIL: 0 CELLS/uL
  ABSOLUTE LYMPHOCYTE: 13566 CELLS/uL
  ABSOLUTE MONOCYTE: 151.33 CELLS/uL
  ABSOLUTE SEGMENTED NEUTROPHIL: 1516 CELLS/uL
  BASOPHIL: 0%
  EOSINOPHIL: 0%
  ERYTHROCYTE COUNT: 5.56 x10E6/uL
  HEMATOCRIT: 34.8%
  HEMOGLOBIN: 13.33 G/DL
  LEUKOCYTE COUNT: 15.23 x10E3/uL
  LYMPHOCYTE: 89%
  MEAN CORPUSCULAR HEMOGLOBIN: 24 pg
  MEAN CORPUSCULAR HEMOGLOBIN CONCENTRATION: 38.33 G/DL
  MEAN CORPUSCULAR VOLUME: 62.6 fL
  MONOCYTE: 1%
  NEUTROPHIL: 10%
  NUCLEATED RED BLOOD CELLS: 0.33 /100WBC
  PLATELET COUNT: 1291 x10E3/uL
  ALANINE AMINOTRANSFERASE: 51.67 u/L
  ALBUMIN: 4.43 G/DL
  ALKALINE PHOSPHATASE: 455.67 u/L
  ASPARTATE AMINOTRANSFERASE: 87.33 u/L
  BLOOD UREA NITROGEN: 16 mg/dL
  CARBON DIOXIDE: 24 mmol/L
  CHLORIDE: 107.33 MEQ/L
  CHOLESTEROL: 68.67 mg/dL
  CREATINE PHOSPHOKINASE: 294.67 u/L
  CREATININE: 0.23 mg/dL
  GLUCOSE: 153.33 mg/dL
  LACTATE DEHYDROGENASE: 398.67 u/L
  LIPASE: 10.67 u/L
  PHOSPHORUS: 13.37 mg/dL
  POTASSIUM: 7 MEQ/L
  SODIUM: 149 MEQ/L
  TOTAL BILIRUBIN: 0.27 mg/dL
  TOTAL PROTEIN: 6.23 G/DL
  URIC ACID: 1.53 mg/dL
[2]
  ABSOLUTE BASOPHIL: 0 CELLS/uL
  ABSOLUTE EOSINOPHIL: 43 CELLS/uL
  ABSOLUTE LYMPHOCYTE: 10491.67 CELLS/uL
  ABSOLUTE MONOCYTE: 227.33 CELLS/uL
  ABSOLUTE SEGMENTED NEUTROPHIL: 1004.67 CELLS/uL
  BASOPHIL: 0%
  EOSINOPHIL: 0.33%
  ERYTHROCYTE COUNT: 6.03 x10E6/uL
  HEMATOCRIT: 38.43%
  HEMOGLOBIN: 14.23 G/DL
  LEUKOCYTE COUNT: 11.77 x10E3/uL
  LYMPHOCYTE: 89%
  MEAN CORPUSCULAR HEMOGLOBIN: 23.67 pg
  MEAN CORPUSCULAR HEMOGLOBIN CONCENTRATION: 37.03 G/DL
  MEAN CORPUSCULAR VOLUME: 63.87 fL
  MONOCYTE: 2%
  NEUTROPHIL: 8.67%
  NUCLEATED RED BLOOD CELLS: 0 /100WBC
  PLATELET COUNT: 1197.33 x10E3/uL
  ALANINE AMINOTRANSFERASE: 65 u/L
  ALBUMIN: 4.63 G/DL
  ALKALINE PHOSPHATASE: 455 u/L
  ASPARTATE AMINOTRANSFERASE: 98.67 u/L
  BLOOD UREA NITROGEN: 16.33 mg/dL
  CARBON DIOXIDE: 24 mmol/L
  CHLORIDE: 104.67 MEQ/L
  CHOLESTEROL: 69.33 mg/dL
  CREATINE PHOSPHOKINASE: 336 u/L
  CREATININE: 0.19 mg/dL
  GLUCOSE: 168.67 mg/dL
  LACTATE DEHYDROGENASE: 329 u/L
  LIPASE: 10.33 u/L
  PHOSPHORUS: 15.57 mg/dL
  POTASSIUM: 7.49 MEQ/L
  SODIUM: 147.77 MEQ/L
  TOTAL BILIRUBIN: 0.17 mg/dL
  TOTAL PROTEIN: 6.6 G/DL
  URIC ACID: 2.67 mg/dL
[3]
  ABSOLUTE BASOPHIL: 0 CELLS/uL
  ABSOLUTE EOSINOPHIL: 35 CELLS/uL
  ABSOLUTE LYMPHOCYTE: 7367 CELLS/uL
  ABSOLUTE MONOCYTE: 79.33 CELLS/uL
  ABSOLUTE SEGMENTED NEUTROPHIL: 1085.33 CELLS/uL
  BASOPHIL: 0%
  EOSINOPHIL: 0.33%
  ERYTHROCYTE COUNT: 5.88 x10E6/uL
  HEMATOCRIT: 37.6%
  HEMOGLOBIN: 13.93 G/DL
  LEUKOCYTE COUNT: 8.57 x10E3/uL
  LYMPHOCYTE: 86%
  MEAN CORPUSCULAR HEMOGLOBIN: 23.7 pg
  MEAN CORPUSCULAR HEMOGLOBIN CONCENTRATION: 37.07 G/DL
  MEAN CORPUSCULAR VOLUME: 64 fL
  MONOCYTE: 1%
  NEUTROPHIL: 12.67%
  NUCLEATED RED BLOOD CELLS: 0.33 /100WBC
  PLATELET COUNT: 1265.33 x10E3/uL
  ALANINE AMINOTRANSFERASE: 45.33 u/L
  ALBUMIN: 4.9 G/DL
  ALKALINE PHOSPHATASE: 446 u/L
  ASPARTATE AMINOTRANSFERASE: 84 u/L
  BLOOD UREA NITROGEN: 18.33 mg/dL
  CARBON DIOXIDE: 17 mmol/L
  CHLORIDE: 102 MEQ/L
  CHOLESTEROL: 71.33 mg/dL
  CREATINE PHOSPHOKINASE: 290.67 u/L
  CREATININE: 0.2 mg/dL
  GLUCOSE: 148 mg/dL
  LACTATE DEHYDROGENASE: 411.33 u/L
  LIPASE: 11.33 u/L
  PHOSPHORUS: 13.93 mg/dL
  POTASSIUM: 7.66 MEQ/L
  SODIUM: 147.03 MEQ/L
  TOTAL BILIRUBIN: 0.27 mg/dL
  TOTAL PROTEIN: 6.87 G/DL
  URIC ACID: 2.23 mg/dL
[4]
  ABSOLUTE BASOPHIL: 0 CELLS/uL
  ABSOLUTE EOSINOPHIL: 26.33 CELLS/uL
  ABSOLUTE LYMPHOCYTE: 7838.33 CELLS/uL
  ABSOLUTE MONOCYTE: 52.67 CELLS/uL
  ABSOLUTE SEGMENTED NEUTROPHIL: 1616 CELLS/uL
  BASOPHIL: 0%
  EOSINOPHIL: 0.33%
  ERYTHROCYTE COUNT: 6.38 x10E6/uL
  HEMATOCRIT: 39.03%
  HEMOGLOBIN: 14.3 G/DL
  LEUKOCYTE COUNT: 9.53 x10E3/uL
  LYMPHOCYTE: 81.33%
  MEAN CORPUSCULAR HEMOGLOBIN: 22.43 pg
  MEAN CORPUSCULAR HEMOGLOBIN CONCENTRATION: 36.63 G/DL
  MEAN CORPUSCULAR VOLUME: 61.17 fL
  MONOCYTE: 0.67%
  NEUTROPHIL: 17.67%
  NUCLEATED RED BLOOD CELLS: 0 /100WBC
  PLATELET COUNT: 1351.33 x10E3/uL
  ALANINE AMINOTRANSFERASE: 47 u/L
  ALBUMIN: 4.67 G/DL
  ALKALINE PHOSPHATASE: 399 u/L
  ASPARTATE AMINOTRANSFERASE: 95.33 u/L
  BLOOD UREA NITROGEN: 19 mg/dL
  CARBON DIOXIDE: 30.67 mmol/L
  CHLORIDE: 103.33 MEQ/L
  CHOLESTEROL: 49 mg/dL
  CREATINE PHOSPHOKINASE: 935.33 u/L
  CREATININE: 0.2 mg/dL
  GLUCOSE: 169 mg/dL
  LACTATE DEHYDROGENASE: 578.33 u/L
  LIPASE: 12.33 u/L
  PHOSPHORUS: 13.23 mg/dL
  POTASSIUM: 6.47 MEQ/L
  SODIUM: 147.4 MEQ/L
  TOTAL BILIRUBIN: 0.27 mg/dL
  TOTAL PROTEIN: 6.8 G/DL
  URIC ACID: 1.87 mg/dL
